Values of other authors as cited in patent US4122157A, “Nitrofurantoin sustained release tablet” (Richardson-Merrell Inc., priority 1977, dated 1978).

Details: background statement

In the case of `O=C1CN(N=Cc2ccc([N+](=O)[O-])o2)C(=O)N1` [Nitrofurantoin, 1-[(5-nitrofurfurylidene)amino]hydantoin], the tolerability in humans is given as “remarkably well tolerated in humans” and the “most frequent adverse reactions” value (humans) is given as “anorexia, nausea and emesis”.
